Patent US20090053509A1, “Mixed solubility borate preservative” (U.S. Borax Inc., priority 2000, published 2009)

Legend:
[1] = system: mold; assay: Mold exposure test on aspen OSB with water repellant (Example 3); type: cell-based; details: scale 0-4; for Mold Formation Rating: 4 weeks, OSB pMDI 6%
Description: (§1) Mold exposure testing was carried out using a modified version of the ASTM: D 3273-94 procedure. Exposure of the OSB samples to mold was done in an experimental chamber consisting of a 597 mm×311 mm×413 mm plastic container tilted on its side to give a 45° roof angle to prevent condensate dripping on the samples and filled with 2-3 inches of water. The water was heated to 32.5° C. (±1° C.), using a thermostatically controlled heating coil. A 292 mm×394 mm×133 mm plastic bowl was filled to within 3 inches from the top with a mixture of damp potting soil and unsterile soil collected from outdoors to provide an inoculum source for mold. The bowl was floated in the plastic container. The boards were placed on a plastic mesh above the inoculum source. The blocks were inverted at one week intervals. The test ran for a duration of 4 weeks.
Another set of mold tests similar to Example 2 was carried out. Test samples consisted of Aspen OSB bonded with pMDI resin at a 6% loading. The OSB samples were treated with a hydrophobic resin 1% EW-58S, manufactured by Borden, which served as a water repellant. The preservative treated OSB samples contained either zinc borate alone or a mixture of zinc borate and DOT, at a 60/40 weight ratio. Target loadings of preservative were 0.05, 0.10 and 0.20% by weight in the OSB samples . The OSB test samples were cut into 76 mm×102 mm panels for use in the mold testing. Mold exposure testing was carried out using essentially the same method described in Example 2, except that the water was heated to 30.5° C. (±1° C.). The relative humidity within the environmental chamber was monitored and maintained at .95 to 99% with an average temperature of 27 to 30° C.
After the four week mold exposure, the samples were examined visually and rated for mold growth on a scale of 0 to 4, as in Example 2.

[2] = system: mold; assay: Mold exposure test on aspen OSB, modified ASTM D 3273-94 (Example 2); type: cell-based; details: for Mold Formation Rating: 4 weeks; for Mold Formation Rating, Average: average over boards and soluble borates
Description: The effectiveness of the mixed solubility wood preservatives of this invention against mold growth was tested on samples of aspen oriented strand board (OSB). Two OSB formulations were evaluated. One type was bonded with pMDI resin at a 6% loading. The other type was bonded with a PF resin face and a pMDI resin core. The OSB samples contained either a mixed solubility borate preservative formulation or a low solubility borate alone, or no preservative in the case of the control samples. The low solubility borate in all cases was zinc borate 2:3:3.5. The two different high solubility borates were tested—disodium octaborate tetrahydrate (DOT) and boric oxide (B2O3), also known as anhydrous boric acid (ABA). The weight ratio of low solubility borate to high solubility borate in the mixed solubility samples was either 80/20 or 60/40. Two different target loadings of preservative in the OSB samples were tested—0.18% and 0.88% by weight.
as §1
After the four week mold exposure, the samples were examined visually and rated for mold formation on a scale of 0 to 4, with 0 representing no mold formation (i.e. complete control) and 4 representing complete coverage or overgrowth of the sample by mold. […] With regard to the ratio of high solubility borate to low solubility borate, the samples containing 40% soluble borate (i.e. 60% zinc borate) provided a significant improvement over the samples containing 0% soluble borate (i.e. 100% zinc borate), on average.

[3] = system: Coniophora puteana (brown rot); assay: EN113 decay test of wood composites; type: cell-based; details: wood composite PF face/pMDI core; preservative loading 0.1% by weight; 12 weeks fungal decay exposure; eight samples
Description: Wood composite samples were made having a phenol-formaldehyde (PF) resin face and a diphenylmethanediisocyanate (pMDI) resin core. Some of the samples included a combination of the zinc borate, 2ZnO·3B2O3·3.5H2O, (ZB) and disodium octaborate tetrahydrate (DOT) and others contained ZB alone, while still others contained no wood preservative. The ZB/DOT combination formulations contained 60% ZB by weight and 40% DOT. The preservative compositions were added to the wood composite samples at a loading of 0.1% by weight of the wood composite. The samples were cut to 50 mm×25 mm×20 mm before testing. A total of eight samples from each treatment set were subjected to decay testing.
A total of eight samples from each treatment set were tested according to a standard European decay test protocol known as EN113. The samples were first sealed in plastic bags and gamma irradiated at a level of at a level of 2.0 Mrad using a ^60Co source to ensure sterilization prior to mono-culture decay testing.
Aqueous solutions of 2.0% malt and 2.0% agar were prepared and then autoclaved at 120° C. for 30 minutes. […]
The decay results are shown in Table 1, expressed as average percent weight loss of the wood composite samples after 12 weeks of fungal decay exposure.

[4] = system: Formosan subterranean termite (Coptotermes formosanus Shiraki); assay: Termite field test of aspen waferboards, Hilo; type: in vivo; details: 0.88% preservative
Description: The performance of mixed solubility borate preservatives against termites was investigated in a study using aspen waferboards bonded with either 100% pMDI (in both face and core) or with Phenol Formaldehyde (PF) in the face and pMDI in the core. The boards were made with a target loading of 0.88% preservative utilizing the formulations (blends) described in Table 4. The borates were incorporated into the board by mixing the preservative formulations with the aspen wafers in a blender before addition of the adhesive and wax. Composite board specimens were exposed to the Formosan subterranean termite (Coptotermes formosanus Shiraki) at a field test site in Hilo, Hi. The specimens, along with untreated aspen ‘feeder’ stakes, are placed in a horizontal array on hollow core concrete blocks approximately 10 cm thick. In addition to surrounding the test specimens, the untreated feeder stakes are also driven into the ground in an effort to increase the termite pressure on the test specimens. The assembly is then covered with a wooden box to prevent direct contact with rain. This is a severe test format conducted using a very termite susceptible wood species (aspen).
After 3, 9 and 15 months exposure the boards were rated visually on a scale of 0 to 10 . A rating of 10 indicates the sample was in perfect condition, while a 0 rating means the sample was essentially destroyed. Each result consisted of an average rating from the inspection of 10 separate samples (10 replicates).

2ZnO·3B2O3·3.5H2O [ZB only]
Mold Formation Rating ([1]; target borate loading 0.05 % BAE, Edges): 1.00
Mold Formation Rating ([1]; target borate loading 0.05 % BAE, Faces): 1.00
Mold Formation Rating ([1]; target borate loading 0.10 % BAE, Edges): 3.33
Mold Formation Rating ([1]; target borate loading 0.10 % BAE, Faces): 2.67
Mold Formation Rating ([1]; target borate loading 0.20 % BAE, Edges): 2.33
Mold Formation Rating ([1]; target borate loading 0.20 % BAE, Faces): 1.00
Mold Formation Rating, Average ([1]; average over loadings 0.05-0.20 % BAE, Faces and Edges): 1.89
Mold Formation Rating ([2]; scale 0 (no mold) to 4 (complete coverage), target borate loading 0.18 % BAE, board pMDI-6%, measured at Edges): 2.00
Mold Formation Rating ([2]; scale 0-4, target borate loading 0.18 % BAE, board PF-pMDI, measured at Edges): 2.00
Mold Formation Rating ([2]; scale 0-4, target borate loading 0.18 % BAE, board PF-pMDI, measured at Faces): 1.25
Mold Formation Rating ([2]; scale 0-4, target borate loading 0.18 % BAE, board pMDI-6%, measured at Faces): 0.75
Mold Formation Rating ([2]; scale 0-4, target borate loading 0.88 % BAE, board PF-pMDI, measured at Edges): 1.50
Mold Formation Rating ([2]; scale 0-4, target borate loading 0.88 % BAE, board PF-pMDI, measured at Faces): 0.75
Mold Formation Rating ([2]; scale 0-4, target borate loading 0.88 % BAE, board pMDI-6%, measured at Edges): 0.75
Mold Formation Rating ([2]; scale 0-4, target borate loading 0.88 % BAE, board pMDI-6%, measured at Faces): 0.00
Mold Formation Rating, Average ([2]; scale 0-4, 0.18 % BAE, Edges): 2.00
Mold Formation Rating, Average ([2]; scale 0-4, 0.18 % BAE, Faces): 1.00
Mold Formation Rating, Average ([2]; scale 0-4, 0.88 % BAE, Edges): 1.13
Mold Formation Rating, Average ([2]; scale 0-4, 0.88 % BAE, Faces): 0.38
Average % Wt. Loss [3]: 15.98%
Termites Ratings ([4]; scale 0 (destroyed) to 10 (perfect), board pMDI, 3 mos. exposure, average of 10 replicates): 10
Termites Ratings ([4]; scale 0-10, board PF/pMDI, 3 mos. exposure): 10
Termites Ratings ([4]; scale 0-10, board PF/pMDI, 9 mos. exposure): 9.5
Termites Ratings ([4]; scale 0-10, board PF/pMDI, 15 mos. exposure): 9.7
Termites Ratings ([4]; scale 0-10, board pMDI, 9 mos. exposure): 9.8
Termites Ratings ([4]; scale 0-10, board pMDI, 15 mos. exposure): 9.9
